Experimental data from patent US5750720A, “4-[(thien-3-yl)methyl]-imidazole analgesics” (Ortho Pharmaceutical Corporation, priority 1996, dated 1998).
Where a name gives a salt, the structure may show the parent alone. Read-outs that look alike come from different tables or passages of the source.

Experiments:
[1] = target: T1, Alpha2D adrenergic receptor (Rattus norvegicus, UniProt P22909); assay: Alpha2D adrenergic receptor binding assay (3H-paraaminoclonidine, rat cortex synaptic membranes); design: species or system Wistar rats
T1 construct: aliquots of the synaptic membrane fraction; from tissue; host or cells: rat cerebral cortex, synaptic membrane fraction
T1 sequence (P22909 1-465): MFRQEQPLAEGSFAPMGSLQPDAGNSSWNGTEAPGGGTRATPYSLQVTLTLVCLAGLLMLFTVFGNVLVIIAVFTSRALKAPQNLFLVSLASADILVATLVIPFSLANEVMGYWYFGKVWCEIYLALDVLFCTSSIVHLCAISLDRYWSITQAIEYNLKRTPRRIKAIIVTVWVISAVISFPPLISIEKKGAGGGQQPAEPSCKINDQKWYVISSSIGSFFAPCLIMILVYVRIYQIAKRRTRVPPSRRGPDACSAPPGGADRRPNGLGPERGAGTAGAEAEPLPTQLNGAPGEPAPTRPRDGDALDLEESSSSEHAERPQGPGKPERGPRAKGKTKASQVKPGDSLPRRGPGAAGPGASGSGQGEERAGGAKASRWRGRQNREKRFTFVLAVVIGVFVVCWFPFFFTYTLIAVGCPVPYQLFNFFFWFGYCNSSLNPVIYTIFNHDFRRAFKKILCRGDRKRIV
Protocol: Alpha2D adrenergic receptor binding assay
Male, Wistar rats (150-250 g, VAF, Charles River, Kingston, N.Y.) are sacrificed by cervical dislocation and their brains removed and placed immediately in ice cold HEPES buffered sucrose. The cortex is dissected out and homogenized in 20 volumes of HEPES sucrose in a Teflon®-glass homogenizer. The homogenate is centrifuged at 1000 g for 10 min, and the resulting supernatant centrifuged at 42,000 g for 10 min. The resulting pellet is resuspended in 30 volumes of 3 mM potassium phosphate buffer, pH 7.5, preincubated at 25° C. for 30 min and recentrifuged. The resulting pellet is resuspended as described above and used for the receptor binding assay. Incubation is performed in test tubes containing phosphate buffer, 2.5 mM MgCl2, aliquots of the synaptic membrane fraction, the ligand ^3 H-paraaminoclonidine and test drug at 25°0 C. for 20 min. The incubation is terminated by filtration of the tube contents through glass fiber filter sheets. Following washing of the sheets with 10 mM HEPES buffer, the adhering radioactivity is quantified by liquid scintillation spectrometry.
Binding of the test drug to the receptor is determined by comparing the amount of radiolabeled ligand bound in control tubes without drug to the amount of radiolabeled ligand bound in the presence of the drug. Dose-response data are analyzed with LIGAND, a nonlinear curve fitting program designed specifically for the analysis of ligand binding data. This assay is described by Simmons, R. M. A., and Jones, D. J., Binding of [^3 H-]prazosin and [^3 H-]p-aminoclonidine to α-Adrenoceptors in Rat Spinal Cord, Brain Research 445:338-349, 1988.

[2] = tested on: acetylcholine bromide-induced abdominal constriction response; assay: Mouse Acetylcholine Bromide-Induced Abdominal Constriction Assay; format: in vivo; details: p.o., 30 min before acetylcholine bromide 5.5 mg/kg i.p.; for inhibition at 30 mg/kg: @30 mpk; for ED50: po, 0.5 h, dose producing 50% analgesia
Protocol: Mouse Acetylcholine Bromide-Induced Abdominal Constriction Assay
The mouse acetylcholine bromide-induced abdominal constriction assay, as described by Collier et al. in Brit. J. Pharmacol. Chem. Ther., 32:295-310, 1968, with minor modifications was used to assess analgesic potency of the compounds herein. The test drugs or appropriate vehicle were administered orally (p.o.) and 30 minutes later the animal received an intraperitoneal (i.p.) injection of 5.5 mg/kg acetylcholine bromide (Matheson, Coleman and Bell, East Rutherford, N.J.). The mice were then placed in groups of three into glass bell jars and observed for a ten minute observation period for the occurrence of an abdominal constriction response (defined as a wave of constriction and elongation passing caudally along the abdominal wall, accompanied by a twisting of the trunk and followed by extension of the hind limbs). The percent inhibition of this response to a nociceptive stimulus (equated to % analgesia) was calculated as follows: The % Inhibition of response, i.e., % analgesia is equal to the difference between the number of control animals response and the number of drug-treated animals response times 100 divided by the number of control animals responding.
At least 15 animals were used for control and in each of the drug treated groups. At least three doses were used to determine each dose response curve and ED50 (that dose which would produce 50% analgesia). The ED50 values and their 95% fiducial limits were determined by a computer assisted probit analysis.

[3] = tested on: α2-adrenoceptor; details: cited from earlier work; for hypotensive effect: animals and humans, magnitude relatively insignificant
[4] = tested on: α2-adrenoceptor; details: non-opiate mechanism, without opiate liability; cited from earlier work
[5] = 3H-paraaminoclonidine, rat cortex, 25° C, 20 min, read-out: Ki

SMILES: Cc1cc(C(C)c2c[nH]cn2)c(C)s1 (stereo not shown)
- Ki [1, 5]: 6.1 nM
- inhibition at 30 mg/kg [2]: 100%

SMILES: c1nc(Cc2ccsc2)c[nH]1
- Ki [1, 5]: 3.1 nM
- ED50 [2]: 6.4 mg/kg

SMILES: Cc1sccc1C(C)c1c[nH]cn1 (stereo not shown)
- Ki [1, 5]: 2.3 nM
- ED50 [2]: 1.6 mg/kg

SMILES: CC(c1ccsc1)c1c[nH]cn1 (stereo not shown)
- Ki [1, 5]: 2.5 nM
- inhibition at 30 mg/kg [2]: 100%

SMILES: Cc1csc(C)c1C(C)c1c[nH]cn1 (stereo not shown)
- Ki [1, 5]: 33.5 nM
- ED50 [2]: 7.8 mg/kg

SMILES: CCc1cc(C(C)c2c[nH]cn2)c(CC)s1 (stereo not shown)
- Ki [1, 5]: 11.4 nM
- inhibition at 30 mg/kg [2]: 67%

SMILES: CCc1sccc1C(C)c1c[nH]cn1 (stereo not shown)
- Ki [1, 5]: 1.1 nM
- inhibition at 30 mg/kg [2]: 100%

SMILES: C=C(c1c[nH]cn1)c1csc(Br)c1Br
- Ki [1, 5]: 0.98 nM
- inhibition at 30 mg/kg [2]: 27%

SMILES: Cc1cccc(C(C)c2cnc[nH]2)c1C (racemic) [Medetomidine]
- hypotensive effect [3]: hypotensive in animals and in humans, but the magnitude of this cardiovascular effect is relatively insignificant

SMILES: Clc1cccc(Cl)c1NC1=NCCN1 [Clonidine]
- other behavioral and physiological effects ([3]; in vivo): sedation and cardiovascular effects
- analgesia [4]: produce analgesia through a non-opiate mechanism

SMILES: Cc1sccc1Cc1c[nH]cn1 [Cp-1, 4-[(2-Methylthien-3-yl)methyl]-1H-imidazole Fumarate]
- Ki [1]: 0.44 nM
- inhibition at 30 mg/kg [2]: 100%

SMILES: Cc1cscc1Cc1c[nH]cn1.O=C(O)/C=C/C(=O)O [Cp-2, 4-[(4-Methylthien-3-yl)methyl]-1H-imidazole Fumarate]
- Ki [1]: 0.47 nM
- ED50 [2]: 0.4 mg/kg

SMILES: Cc1cscc1C(C)c1c[nH]cn1.O=C(O)/C=C/C(=O)O (stereo not shown) [Cp-3, 4-[1-(4-Methylthien-3-yl)ethyl]-1H-imidazole Fumarate]
- Ki [1]: 0.39 nM
- ED50 [2]: 0.4 mg/kg

SMILES: CCC(c1c[nH]cn1)c1cscc1C (stereo not shown) [Cp-4, 4-[1-(4-Methylthien-3-yl)propyl]-1H-imidazole Fumarate]
- Ki [1]: 0.97 nM
- inhibition at 30 mg/kg [2]: 100%

SMILES: Cc1cc(Cc2c[nH]cn2)c(C)s1.O=C(O)/C=C/C(=O)O [Cp-5, 4-[(2,5-dimethylthien-3-yl)methyl]-1H-imidazole Fumarate]
- Ki [1]: 0.69 nM
- ED50 [2]: 1.3 mg/kg

SMILES: CCc1cc(Cc2c[nH]cn2)c(CC)s1.O=C(O)/C=C/C(=O)O [Cp-6, 4-[(2,5-diethylthien-3-yl)methyl]-1H-imidazole Fumarate]
- Ki [1]: 0.4 nM
- ED50 [2]: 3.7 mg/kg

SMILES: CCc1sccc1Cc1c[nH]cn1.O=C(O)/C=C/C(=O)O [Cp-7, 4-[(2-ethylthien-3-yl)methyl]-1H-imidazole fumarate]
- Ki [1]: 0.07 nM
- ED50 [2]: 0.4 mg/kg

SMILES: Cc1csc(C)c1Cc1c[nH]cn1 [Cp-8, 4-[(2,4-Dimethylthien-3-yl)methyl]-1H-imidazole Fumarate]
- Ki [1]: 0.1 nM
- inhibition at 30 mg/kg [2]: 100%

SMILES: CCc1cscc1Cc1c[nH]cn1 [Cp-9, 4-[(4-ethylthien-3-yl)methyl]-1H-imidazole fumarate]
- Ki [1]: 0.29 nM
- inhibition at 30 mg/kg [2]: 100%

SMILES: CCc1cscc1C(C)c1c[nH]cn1 (stereo not shown) [Cp-10, 4-[1-(4-ethylthien-3-yl)ethyl]-1H-imidazole fumarate]
- Ki [1]: 0.28 nM
- inhibition at 30 mg/kg [2]: 100%

SMILES: Cc1cccc(Cc2c[nH]cn2)c1C [detomidine]
- hypotensive effect [3]: hypotensive in animals and in humans, but the magnitude of this cardiovascular effect is relatively insignificant
